Square brackets hold non-standard residues; d marks the D form. Ends that are not written are not given here.

Data on 2 substances can be found in patent US12221494B2, “Short synthetic peptides and their uses for treating retinal degenerative diseases and/or tissue injuries” (MacKay Memorial Hospital, priority 2019, dated 2025).

One test concerns Neuro-2a cells. Briefly: Glutamate-induced Neuro-2a cell death (LDH release). Format: cell-based, mouse. The conditions noted are these: glutamate-induced cell death. On the procedure: Neuro-2a cells were seeded in 48-well culture plates (1.5×10^5 cells/well) for 24 h, and then cultured in 0.5 ml fresh 2% FBS-DMEM medium containing 20 μM of the present peptide (7 μg of 6-mer in 0.5 ml medium) for further 4 h. Subsequently, 100 mM glutamate (from 1 M stock and PBS as solvent) was added to cells for further 6 h. Glutamate-induced cell death was quantitatively assessed by measuring lactate dehydrogenase (LDH) activity released into the culture medium by damaged cells. LDH activity was measured using PicoProbe™ LDH-Cytotoxicity Fluorometric Assay Kit (Catalog #K314-500; BioVision) according to the instruction manuals. LDH activity was estimated using an automated microplate reader (UVmax; Molecular Devices, San Francisco, CA) by measuring the fluorescent product (Ex/Em=535/587 nm).
Briefly, cells were pretreated with the designated peptide (i.e., any of SEQ ID NOs: 2 to 11) for 4 h and then treated with 100 mM glutamate for 6 h. The cell death was detected by a commercial lactate dehydrogenase (LDH) Cytotoxicity Assay Kit. Results are depicted in FIG. 1.

A further test has as its system STAT3. Nature of the test: Western blot of STAT3 phosphorylation in C2C12 cells. Format: cell-based, mouse. Particulars: C2C12 myoblast cells, 5 to 20 min after stimulation. On the procedure: Cell lysis, fractionation, and SDS-PAGE were conducted in accordance with procedures described previously (Yang Y C et al., BMC Cancer 2007; 7:216). Antibodies used in this study were for Phospho-Stat3 and STAT3 (1:1000-fold dilution). Proteins of interest were detected using the appropriate IgG-HRP secondary antibody (Santa Cruz Biotechnology) and ECL reagent (Amersham Biosciences).
In general terms: A western blot detects proteins with antibodies after separation by electrophoresis.

The subject of another test is ARPE-19 cells. Nature of the test: 4-HNE induced apoptosis of ARPE-19 cells (TUNEL staining). Format: cell-based, human. Particulars: 20 μM peptide pretreatment, 25 μM 4-HNE 24 h. On the procedure:
FIG. 6. The protective effect of the 6-mer dS on ARPE-19 cells against 4-HNE induced apoptosis. Cells were deprived of serum for 24 h and then pretreated with 20 μM 6-mer dS or solvent prior to exposed with 25 μM 4-HNE for additional 24 h. Apoptosis was determined by TUNEL staining (green dots) and counter-stained with Hoechst 33258 (blue dots). (A) Representative graphs from three independent experiments are shown. (B) The percentage of cell death was quantified by dividing the number of TUNEL-positive cells to a population of 2000 counted cells per condition. TUNEL, terminal deoxynucleotidyl transferase-mediated dUTP nick end-labeling. ^aP<0.00003 versus solvent-treated cells. ^bP<0.0006 versus solvent/4-HNE-treated cells.
Reference is made to FIG. 6, which depicts the protective effect of 6-mer dS or 6-mer dE on 4-hydroxy-2-nonenal (4-HNE) induced apoptosis of ARPE-19 cells. 4-hydroxy-2-nonenal (4-HNE) is a product of lipid oxidation, and is also considered as one of the most formidable reactive aldehydes capable of forming adduct with various cellular targets, particularly proteins involve in redox signaling.

Turning to “NH2-(D-Ser)-Leu-Gly-Ala-Glu-COOH (SLGAE; HELM PEPTIDE1{[dS].L.G.A.E}$$$$V2.0; SMILES CC(C)C[C@H](NC(=O)[C@H](N)CO)C(=O)NCC(=O)N[C@@H](C)C(=O)N[C@@H](CCC(=O)O)C(=O)O) [5-mer dS]”, the “protective effect on Neuro-2a cells (neuroprotective activity), in words” value in the test with Neuro-2a cells is on record as “lacks any significant neuroprotective activity”. Further, in the test with STAT3, the “STAT3 phosphorylation (immunoblot)” value is “possessed no such effect”.
In the case of “NH2-Ser-Leu-Gly-Ala-Glu-Gln-COOH ([dS]LGAEQ; not fully specified (N-terminus, C-terminus); printed as NH2-Ser-Leu-Gly-Ala-Glu-Gln-COOH) [Peptide 6-mer]”, the “4-HNE induced apoptosis (TUNEL), in words” value with ARPE-19 cells is on record as 6-mer dS being more effective than the 6-mer.
